In one data set the test system is B cells from CIA mice. Briefly: RT-PCR cytokine gene expression in cells purified from CIA mice. Type of data set: cell-based. Conditions: 33 nM and 100 nM, 45 minutes.
A further data set has as its target T1, CD40 (Mus musculus, UniProt P27512).
T1 construct: Peritoneal and bone marrow-derived macrophages were isolated from CIA mice; endogenous in cells; host or cells: peritoneal and bone marrow-derived macrophages from CIA mice
T1 sequence (P27512 20-289): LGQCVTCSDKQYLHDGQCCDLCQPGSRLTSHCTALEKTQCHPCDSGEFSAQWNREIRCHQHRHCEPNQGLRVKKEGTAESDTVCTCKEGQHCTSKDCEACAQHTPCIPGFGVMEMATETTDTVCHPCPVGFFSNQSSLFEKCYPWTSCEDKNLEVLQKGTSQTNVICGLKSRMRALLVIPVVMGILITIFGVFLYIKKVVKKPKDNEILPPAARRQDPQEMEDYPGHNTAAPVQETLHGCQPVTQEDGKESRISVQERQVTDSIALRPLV
Briefly: CD40-mediated B cell proliferation (anti-CD40, CD40L). The class given is cell-based, mice. The settings on record: pre-treatment of B cells. The protocol: (§1) Activity was monitored by ^3H-thymidine incorporation as a read-out for proliferation. […] Cell type(s) in the splenocyte population responsive to therapeutic concentrations of cardiac glycoside were determined by identifying the population of cells that responded to a dose-dependent decrease in activity in the presence of stimulant, defined as ligand(s) binding to cognate receptor(s). Activity was analyzed by: ^3H-thymidine or BrdU incorporation to monitor proliferation or by ELISA to monitor cytokine production. Splenic T lymphocytes were isolated by negative selection (MACS, Miltinyi Biotec) and are stimulated with PMA, ConA or through the TCR with anti-CD3/anti-CD28 Dynabeads (Invitrogen) and collagen II (all non-TNFR receptors/pathways). […] Peritoneal and bone marrow-derived macrophages were isolated from CIA mice in the presence of M-CSF growth factor and were stimulated with TNF and CD40 ligand (CD40L). […] Splenic B lymphocytes were isolated by negative selection (MACS, Miltinyi Biotec) and were stimulated with BAFF (BLyS), CD40L or through the BCR with anti-IgM u-chain specific antibodies.

Another data set relates to MRL-Ipr splenic B cells. The experiment in a line: ANA production by MRL-Ipr splenic B cells in vitro. The class given is cell-based, mice. Conditions: 2×10^5 vehicle-treated MRL-Ipr splenic B cells, 33 nM.
Data set [1] has as its system TNF-mediated NFκB activity in HeLa cells. Briefly: NFκB luciferase reporter assay in TNF-stimulated HeLa cells. Conditions: pre-treatment 6 hours with 0-500 nM, 50 ng/mL TNF. Type of data set: cell-based. As for the experimental part:
FIG. 8. […] Values represent mean light units produced. Error bars represent SEM, and statistical significance was determined by unpaired T-test. Single and double asterisks represent P-values of 0.01 or 0.001, respectively. […] Samples were harvested at designated time points and were fractionated into nuclear and cytoplasmic lysates (Pierce). Lysates were quantified using BCA (Pierce), and were equally loaded according to total protein. Membranes were probed for levels of nuclear phospho-p65 (ReIA), phospho-ReIB, and histone (histone served as loading control and fractionation method control) and cytoplasmic degradation of IκBα (beta-tubulin served as loading control and fractionation method control).
HeLa cells were co-transfected with the reporter pNFκB-luc and control vector pTAL (Renilla) for 18 h prior to incubation with 0-500 nM cardiac glycoside for 6 h. Cells are stimulated with 50 ng/mL TNF. […] FIG. 8 B).
For orientation: In a reporter assay the amount or activity of a reporter protein is the signal.

For data set [2], the system named is collagen-induced arthritis (CIA). The class given is in vivo, DBA1/J mice.
Data set [3] deals with naïve CD4+ T cells, Th17 differentiation. Briefly: Th17 T cell differentiation in co-culture with pre-treated CIA B cells. The settings on record: B cells treated 33 nM for 30 minutes, washed, co-culture 72 hr in Th17 differentiation media. Type of data set: cell-based, mice. As for the experimental part:
FIG. 24. […] At endpoint, IL-17 cytokine levels were quantified by ELISA (R&D Systems). (B) IL-10 cytokine production was also assessed in each sample by ELISA (eBiosciences). Data represent the average of triplicates and error bars represent the SEM. Statistical significance was determined by the students t-test.
It is known that B cells can regulate T cell differentiation and in many states of autoimmune disease, an imbalance of Th1, Th2, and Th17 T cell populations exist. […] We performed studies to determine the regulatory effector function of B cells pre-treated with cardiac glycoside on T cell differentiation. B cells blocked naïve CD4^+ T cell differentiation into Th17 cells when cardiac glycoside was administered to B cells 30 minutes prior to co-culture with T cells (FIG. 24 A). Additionally, the pre-treatment of B cells with cardiac glycoside inhibited Th17 differentiation in a STAT3-dependent manner (FIG. 25A). […] Cardiac glycosides can be administered to patients to induce IL-10 expressing B cells and to modulate T cell differentiation and increase numbers of Tregs which reduce autoimmune disease progression.

Another data set relates to BAFFR. The experiment in a line: BAFF-mediated stimulation of B cells. The class given is cell-based, mice. Conditions: 33 nM pre-treatment, BAFF 0.5 or 5 μg/ml. The protocol:
as §1

Data set [4] can be described thus: Serum concentration obtained with experimental dosing regimen, mouse. The class given is in vivo. Conditions: 0.3 mg/kg per diem, i.p., experimentally determined. The protocol: Dosing regimens in humans vary according to the cardiac glycoside and constitution thereof. Table 3 depicts representative dosing regimens reported in the literature compared to experimental regiments used in mice that are representative of human dosing. Successful dosing detailed in this application includes but is not limited to 0.03-0.4 mg/kg., or from 0.001 to 5 mg/kg.

Data set [5] concerns naïve CD4+ T cells, regulatory T cells. Briefly: Mixed lymphocyte study, pre-treated CIA B cells with naïve CD4+ T cells. Type of data set: cell-based, mice. The settings on record: B cells treated 33 nM for 1 hr, co-culture 72 hr. The protocol:
FIG. 25. […] (A) Representative data from mixed lymphocyte studies. […] B cells were washed, replated in complete RPMI supplemented with BAFF (1 ng/mL), anti-CD3 antibody (4 μg/mL) and were added to 5×10^5 naïve CD4^+ T cells purified by MACS. Cells were incubated for 72 hr prior to harvest. IL-6, IL-10, TGFβ and IL-17 cytokine levels were measured by ELISA (R&D Systems, Peprotech, and eBiosciences). Data represent the average absorbance (A450) of triplicates and error bars represent the SEM. […] Cells were fixed in 4% paraformaldehyde for 15 minutes, washed twice with PBS and blocked with FACS buffer. Cells were stained for regulatory T cells using anti-TCRβ, anti-CD4, anti-CD25 and anti-FoxP3 antibodies (Cell Signaling Technologies, R&D Systems, AbCam). FACS was performed on the FACS Aria (Becton-Dickenson). Data represent the average population in 500,000 cells from 4 mice per treatment group. Error bars represent the SEM.
It is known that B cells can regulate T cell differentiation and in many states of autoimmune disease, an imbalance of Th1, Th2, and Th17 T cell populations exist. […] We performed studies to determine the regulatory effector function of B cells pre-treated with cardiac glycoside on T cell differentiation. […]

Setting [6] is: daily i.p. from Mean Visual Score of 2, digitoxin 0.3 mg/kg, proscillaridin […], Mann-Whitney.

Entries after “also recorded” stand apart in the source; their conditions may differ.

Description for B cells from CIA mice: IL-10 (FIG. 20 A) and TGFβ1 (FIG. 20 B) levels were quantified. Samples were normalized against Ywhaz1 and Hprt1 housekeeping genes. […] Samples were examined in triplicates and the error bars represent the SEM. […] After 30 minutes, cells were washed, lysed and mRNA was isolated with Trizol (Invitrogen). RT-PCR was performed on mRNA and samples were normalized against housekeeping genes, Ywhaz1 and Hprt1. Data represent the average fold change in IL-10 gene expression compared to media alone. Error bars represent SEM of triplicates.
RT-PCR was performed and TGFβ1, IL-10 and IL-6 mRNA levels were quantified. Sample cDNA levels were normalized against housekeeping genes Ywhaz1 and Hprt1. Data represent the average fold change in IL-10 gene expression compared to media alone. Error bars represent SEM of triplicates.
RT-PCR was performed and TGFβ1 and IL-10 levels were quantified and samples were normalized against Ywhaz1 and Hprt1. Data represent the average fold gene induction of triplicates and error bars represent SEM.

Consider `C[C@H]1O[C@@H](O[C@H]2[C@@H](O)C[C@H](O[C@H]3[C@@H](O)C[C@H](O[C@H]4CC[C@@]5(C)[C@H](CC[C@@H]6[C@@H]5CC[C@]5(C)[C@@H](C7=CC(=O)OC7)CC[C@]65O)C4)O[C@@H]3C)O[C@@H]2C)C[C@H](O)[C@@H]1O` [Digitoxin, digitoxin], for which, in the data set on B cells from CIA mice, the “IL-6 mRNA expression in B cells” value was “inhibit IL-6 expression”, the “IL-10 mRNA expression in B cells” value is “induce” and the “TGFβ1 mRNA expression in B cells” value is on record as “induce”. For the same molecule, on CD40, the “CD40L-mediated B cell proliferation” value is “inhibited CD40L-mediated proliferation” and the “anti-CD40 mediated B cell proliferation” value is “prevented anti-CD40 mediated B cell proliferation”. Besides, the “ANA production in vitro at 72 hours” value in the data set with MRL-Ipr splenic B cells is on record as “blockade of autoantibody production”. The “TNF-mediated NFκB activation (luciferase light units)” value in data set [1] is listed as “reduced TNF-mediated NFκB activation in a dose-dependent fashion”. In [2] (0.9 mg/kg digitoxin or 0.6 mg/kg ouabain, i.p., days −3, 0, 3, 6, 9, 12 after boost), the “disease and inflammation (clinical score, paw thickness), dosing every three days i.p.” value is “significantly less disease and inflammation”. Moreover, the “onset of collagen arthritis, dosing every three days sublingual” value in [2] (0.9 mg/kg digitoxin or 0.6 mg/kg ouabain, sublingual, days −3, 0, 3, 6, 9, 12 after boost) was “significantly inhibited the onset of collagen arthritis; also recorded: effective in preventing”. Also, in data set [2] (setting [6]), the “Mean Paw Thickness, treatment of established arthritis” value is “statistically significant reductions” and the “Mean Visual Score, treatment of established arthritis” value is recorded as “statistically significant reductions”. Further, the “development of CIA (Mean Visual Arthritis Score, Mean Paw Thickness), prevention study” value in [2] (daily i.p. from the day prior to induction, digitoxin 0.3 mg/kg, ouabain 0.03 mg/kg, proscillaridin […]) is listed as “prevented the development of CIA”. Further, the “average clinical arthritis scores compared to vehicle, prevention study” value in data set [2] (mouse, in vivo) is “significantly reduced”. In addition, the “prevention and treatment of collagen-induced arthritis (CIA)” value in [2] (murine model for rheumatoid arthritis, summary statement) is “potently prevent and treat”. The “Th17 cell differentiation (IL-17 by ELISA)” value in [3] was “down-regulates Th17 cell differentiation”. Besides, in the data set on BAFFR, the “BAFF-mediated stimulation of B cells through BAFFR” value is given as “inhibited BAFF-mediated stimulation”. Also, the “Serum conc.” value in [4] was determined as 19 ng/mL. In data set [5], the “induction of regulatory T cells in vitro” value is given as “induce regulatory T cells”.

Source of the values: patent publication US20140011755A1, “Cardiac Glycosides for Treating Autoimmune Disease” (Department of Veterans Affairs, priority 2010, published 2014).
